Reference: paper PMC12406203 (Journal of Medicinal Chemistry, 2025)

How the values were obtained:
Experiment in all cases: KINOMEscan
Assay type in all cases: binding
[1] = biological target: T1, MAPKAPK5 (Homo sapiens, UniProt Q8IW41)
T1 construct: purchased Eurofins DiscoverX, LLC; host or cells: E. coli (BL21-derived, T7 phage) or HEK-293
T1 sequence (Q8IW41 1-473): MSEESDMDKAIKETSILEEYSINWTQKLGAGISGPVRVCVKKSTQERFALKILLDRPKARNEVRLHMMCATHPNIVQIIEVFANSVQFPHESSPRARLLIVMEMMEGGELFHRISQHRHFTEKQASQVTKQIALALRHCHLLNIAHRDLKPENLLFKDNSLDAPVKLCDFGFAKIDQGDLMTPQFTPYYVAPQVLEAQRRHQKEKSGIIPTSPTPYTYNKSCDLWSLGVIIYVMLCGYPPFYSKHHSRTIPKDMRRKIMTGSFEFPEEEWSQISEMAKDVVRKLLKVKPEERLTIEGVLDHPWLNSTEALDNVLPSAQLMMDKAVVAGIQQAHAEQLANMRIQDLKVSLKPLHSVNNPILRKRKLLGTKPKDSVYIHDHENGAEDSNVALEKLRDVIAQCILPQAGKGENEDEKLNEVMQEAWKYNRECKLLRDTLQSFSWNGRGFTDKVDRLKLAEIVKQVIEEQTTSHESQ
Description: (§1) The kinase inhibition profile of compounds 94 and 95 was assessed against 103 protein kinases by Eurofins DiscoverX, LLC., using the KINOMEscan assay. Kinase-tagged T7 phage strains were grown in parallel in 24-well blocks in an E. coli host derived from the BL21 strain. E. coli were grown to log-phase and infected with T7 phage from a frozen stock (multiplicity of infection = 0.4) and incubated with shaking at 32 °C until lysis (90–150 min). The lysates were centrifuged (6000g) and filtered (0.2 μm) to remove cell debris. The remaining kinases were produced in HEK-293 cells and subsequently tagged with DNA for qPCR detection. […] The liganded beads were blocked with excess biotin and washed with blocking buffer (SeaBlock (Pierce), 1% BSA, 0.05% Tween 20, 1 mM DTT) to remove unbound ligand and to reduce nonspecific phage binding. […] Test compounds were prepared as 100× stocks in 100% DMSO and directly diluted into the assay. All reactions were performed in polypropylene 384-well plates in a final volume of 0.02 mL. […] The kinase concentration in the eluates was measured by qPCR.
(§2) The compound(s) were screened at the concentration(s) requested, and results for primary screen binding interactions are reported as RA (%), where lower numbers indicate stronger hits in the matrix. RA=(testcompoundsignal−PCsignal/NCsignal−PCsignal)×100

[2] = biological target: T2, MARK3 (Homo sapiens, UniProt P27448)
T2 construct: purchased Eurofins DiscoverX, LLC; host or cells: E. coli (BL21-derived, T7 phage) or HEK-293
T2 sequence (P27448 whole entry): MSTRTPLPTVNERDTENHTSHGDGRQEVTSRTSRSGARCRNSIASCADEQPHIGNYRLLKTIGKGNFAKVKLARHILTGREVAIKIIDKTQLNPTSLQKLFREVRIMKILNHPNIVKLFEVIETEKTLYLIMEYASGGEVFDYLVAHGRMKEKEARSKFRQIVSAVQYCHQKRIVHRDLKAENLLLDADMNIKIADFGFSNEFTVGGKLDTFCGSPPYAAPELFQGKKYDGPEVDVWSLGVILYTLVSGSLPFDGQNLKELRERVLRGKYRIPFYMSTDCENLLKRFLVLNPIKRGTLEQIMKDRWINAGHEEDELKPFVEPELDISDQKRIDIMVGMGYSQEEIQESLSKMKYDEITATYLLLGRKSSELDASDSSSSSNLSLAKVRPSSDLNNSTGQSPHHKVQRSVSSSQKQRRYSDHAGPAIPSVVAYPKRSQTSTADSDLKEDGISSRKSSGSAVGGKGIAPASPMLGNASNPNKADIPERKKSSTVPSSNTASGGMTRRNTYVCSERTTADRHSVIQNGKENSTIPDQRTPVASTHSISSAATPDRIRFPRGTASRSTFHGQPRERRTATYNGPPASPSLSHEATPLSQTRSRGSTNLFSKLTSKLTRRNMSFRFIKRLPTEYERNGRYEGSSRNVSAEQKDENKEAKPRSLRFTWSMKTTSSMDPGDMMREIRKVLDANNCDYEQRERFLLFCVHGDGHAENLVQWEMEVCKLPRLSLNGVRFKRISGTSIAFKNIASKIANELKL
Description: as §1, §2

[3] = biological target: T3, MLK1 (Homo sapiens, UniProt P80192)
T3 construct: purchased Eurofins DiscoverX, LLC; host or cells: E. coli (BL21-derived, T7 phage) or HEK-293
T3 sequence (P80192 whole entry): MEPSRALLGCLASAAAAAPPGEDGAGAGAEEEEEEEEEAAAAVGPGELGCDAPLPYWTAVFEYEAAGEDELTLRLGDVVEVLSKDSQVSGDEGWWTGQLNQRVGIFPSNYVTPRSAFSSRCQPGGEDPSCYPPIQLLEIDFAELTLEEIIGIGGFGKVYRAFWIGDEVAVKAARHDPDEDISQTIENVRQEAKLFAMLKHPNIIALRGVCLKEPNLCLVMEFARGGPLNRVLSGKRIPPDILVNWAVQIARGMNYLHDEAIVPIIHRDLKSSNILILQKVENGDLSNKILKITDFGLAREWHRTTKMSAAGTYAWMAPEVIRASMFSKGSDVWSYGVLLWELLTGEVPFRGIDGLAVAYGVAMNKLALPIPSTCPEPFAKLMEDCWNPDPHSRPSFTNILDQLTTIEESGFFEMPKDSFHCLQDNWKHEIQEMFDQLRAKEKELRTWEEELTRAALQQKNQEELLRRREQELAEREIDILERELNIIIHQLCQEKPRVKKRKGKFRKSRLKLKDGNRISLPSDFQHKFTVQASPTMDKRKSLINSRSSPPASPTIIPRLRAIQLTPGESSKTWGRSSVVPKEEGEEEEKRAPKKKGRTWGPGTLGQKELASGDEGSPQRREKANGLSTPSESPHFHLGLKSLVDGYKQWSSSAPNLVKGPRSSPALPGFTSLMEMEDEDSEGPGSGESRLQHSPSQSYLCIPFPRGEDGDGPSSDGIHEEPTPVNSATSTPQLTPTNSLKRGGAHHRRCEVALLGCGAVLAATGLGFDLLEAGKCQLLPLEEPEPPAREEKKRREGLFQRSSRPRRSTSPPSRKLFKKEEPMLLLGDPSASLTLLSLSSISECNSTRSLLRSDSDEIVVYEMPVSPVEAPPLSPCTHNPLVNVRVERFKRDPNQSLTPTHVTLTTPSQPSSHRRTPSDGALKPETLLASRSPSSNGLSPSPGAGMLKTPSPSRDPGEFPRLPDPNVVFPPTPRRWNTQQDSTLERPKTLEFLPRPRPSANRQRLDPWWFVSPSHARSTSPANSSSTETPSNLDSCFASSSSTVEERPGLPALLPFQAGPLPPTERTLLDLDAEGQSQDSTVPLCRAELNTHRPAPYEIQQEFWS
Description: as §1, §2

[4] = biological target: T4, p38δ (Homo sapiens, UniProt O15264)
T4 construct: purchased Eurofins DiscoverX, LLC; host or cells: E. coli (BL21-derived, T7 phage) or HEK-293
T4 sequence (O15264 1-365): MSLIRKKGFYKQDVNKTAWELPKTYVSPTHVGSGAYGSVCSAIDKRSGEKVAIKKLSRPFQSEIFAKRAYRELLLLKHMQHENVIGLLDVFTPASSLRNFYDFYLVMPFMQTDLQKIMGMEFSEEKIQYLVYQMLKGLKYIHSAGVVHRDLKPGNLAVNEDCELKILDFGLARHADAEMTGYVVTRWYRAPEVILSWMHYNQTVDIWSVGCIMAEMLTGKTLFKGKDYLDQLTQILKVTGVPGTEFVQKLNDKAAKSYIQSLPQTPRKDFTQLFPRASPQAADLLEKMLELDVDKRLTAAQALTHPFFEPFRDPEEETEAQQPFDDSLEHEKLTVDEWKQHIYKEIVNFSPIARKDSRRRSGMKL
Description: as §1, §2

[5] = biological target: T5, CDK9 (Homo sapiens, UniProt P50750)
T5 construct: purchased Eurofins DiscoverX, LLC; host or cells: E. coli (T7 phage) or HEK-293
T5 sequence (P50750 whole entry): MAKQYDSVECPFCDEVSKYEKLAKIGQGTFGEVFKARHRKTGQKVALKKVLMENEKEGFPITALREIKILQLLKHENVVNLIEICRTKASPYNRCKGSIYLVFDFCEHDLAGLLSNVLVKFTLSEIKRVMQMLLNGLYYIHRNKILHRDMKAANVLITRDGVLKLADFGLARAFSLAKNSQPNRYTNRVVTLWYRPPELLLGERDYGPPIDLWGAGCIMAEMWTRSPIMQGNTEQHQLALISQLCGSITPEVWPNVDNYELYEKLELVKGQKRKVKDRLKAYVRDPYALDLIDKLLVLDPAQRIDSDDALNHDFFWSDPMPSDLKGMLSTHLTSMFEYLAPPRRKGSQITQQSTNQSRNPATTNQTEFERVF
Description: as §1, §2

[6] = biological target: T6, CDK3 (Homo sapiens, UniProt Q00526)
T6 construct: purchased Eurofins DiscoverX, LLC; host or cells: E. coli BL21-derived (T7 phage) or HEK-293
T6 sequence (Q00526 whole entry): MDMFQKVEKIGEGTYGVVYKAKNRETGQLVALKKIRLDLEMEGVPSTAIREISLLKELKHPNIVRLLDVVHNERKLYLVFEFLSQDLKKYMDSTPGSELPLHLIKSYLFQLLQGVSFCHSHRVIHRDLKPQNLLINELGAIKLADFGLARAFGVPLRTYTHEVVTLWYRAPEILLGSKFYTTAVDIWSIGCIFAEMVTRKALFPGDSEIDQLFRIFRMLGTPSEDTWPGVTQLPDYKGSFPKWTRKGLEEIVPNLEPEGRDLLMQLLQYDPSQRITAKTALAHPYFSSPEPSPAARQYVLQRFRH
Description: as §1, §2

[7] = biological target: T7, KIT(V559D,T670I) (Homo sapiens, UniProt P10721, T670I/V559D)
T7 construct: purchased Eurofins DiscoverX, LLC; host or cells: E. coli (BL21-derived, T7 phage) or HEK-293
Description: as §1, §2

[8] = biological target: T8, ERBB4 (Homo sapiens, UniProt Q15303)
T8 construct: purchased Eurofins DiscoverX, LLC; host or cells: E. coli (T7 phage) or HEK-293
T8 sequence (Q15303 26-1308): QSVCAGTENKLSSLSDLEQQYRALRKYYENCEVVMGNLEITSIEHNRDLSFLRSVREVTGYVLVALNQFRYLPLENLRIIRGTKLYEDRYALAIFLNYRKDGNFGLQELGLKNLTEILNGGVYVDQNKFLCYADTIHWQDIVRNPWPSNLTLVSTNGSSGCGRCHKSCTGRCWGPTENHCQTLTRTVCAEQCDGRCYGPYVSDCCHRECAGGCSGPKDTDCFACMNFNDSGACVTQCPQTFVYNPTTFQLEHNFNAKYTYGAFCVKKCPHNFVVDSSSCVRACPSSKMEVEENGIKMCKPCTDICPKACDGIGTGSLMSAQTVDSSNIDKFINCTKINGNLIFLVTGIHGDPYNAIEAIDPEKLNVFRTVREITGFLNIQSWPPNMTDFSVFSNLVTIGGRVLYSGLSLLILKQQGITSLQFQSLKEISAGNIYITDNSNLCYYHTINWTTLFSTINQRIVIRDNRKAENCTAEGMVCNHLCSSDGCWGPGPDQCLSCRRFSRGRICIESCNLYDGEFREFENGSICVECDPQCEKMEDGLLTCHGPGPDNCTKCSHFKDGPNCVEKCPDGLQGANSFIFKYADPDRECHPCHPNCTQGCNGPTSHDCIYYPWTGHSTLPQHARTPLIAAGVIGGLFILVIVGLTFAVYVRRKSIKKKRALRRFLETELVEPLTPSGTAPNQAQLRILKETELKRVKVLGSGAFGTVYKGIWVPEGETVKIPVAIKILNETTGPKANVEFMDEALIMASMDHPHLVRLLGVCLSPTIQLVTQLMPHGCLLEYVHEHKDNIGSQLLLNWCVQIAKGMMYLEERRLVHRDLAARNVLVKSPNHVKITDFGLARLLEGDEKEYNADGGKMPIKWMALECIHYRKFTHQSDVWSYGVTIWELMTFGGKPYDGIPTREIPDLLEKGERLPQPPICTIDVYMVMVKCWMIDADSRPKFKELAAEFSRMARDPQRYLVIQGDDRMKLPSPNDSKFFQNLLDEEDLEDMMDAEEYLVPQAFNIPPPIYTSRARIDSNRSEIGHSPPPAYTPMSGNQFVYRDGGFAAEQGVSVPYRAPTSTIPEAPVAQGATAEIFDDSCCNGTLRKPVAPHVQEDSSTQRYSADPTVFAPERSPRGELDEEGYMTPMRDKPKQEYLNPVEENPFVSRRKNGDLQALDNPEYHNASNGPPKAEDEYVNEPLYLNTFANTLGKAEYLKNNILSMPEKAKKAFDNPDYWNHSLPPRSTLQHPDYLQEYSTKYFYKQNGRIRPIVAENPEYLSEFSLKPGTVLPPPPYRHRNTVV
Description: as §1, §2

[9] = biological target: T9, SRPK3 (Homo sapiens, UniProt Q9UPE1)
T9 construct: purchased Eurofins DiscoverX, LLC; host or cells: E. coli BL21-derived host (T7 phage) or HEK-293
Description: as §1, §2

[10] = biological target: T10, SRC (Homo sapiens, UniProt P12931)
T10 construct: purchased Eurofins DiscoverX, LLC; host or cells: E. coli BL21-derived host (T7 phage) or HEK-293
T10 sequence (P12931 whole entry): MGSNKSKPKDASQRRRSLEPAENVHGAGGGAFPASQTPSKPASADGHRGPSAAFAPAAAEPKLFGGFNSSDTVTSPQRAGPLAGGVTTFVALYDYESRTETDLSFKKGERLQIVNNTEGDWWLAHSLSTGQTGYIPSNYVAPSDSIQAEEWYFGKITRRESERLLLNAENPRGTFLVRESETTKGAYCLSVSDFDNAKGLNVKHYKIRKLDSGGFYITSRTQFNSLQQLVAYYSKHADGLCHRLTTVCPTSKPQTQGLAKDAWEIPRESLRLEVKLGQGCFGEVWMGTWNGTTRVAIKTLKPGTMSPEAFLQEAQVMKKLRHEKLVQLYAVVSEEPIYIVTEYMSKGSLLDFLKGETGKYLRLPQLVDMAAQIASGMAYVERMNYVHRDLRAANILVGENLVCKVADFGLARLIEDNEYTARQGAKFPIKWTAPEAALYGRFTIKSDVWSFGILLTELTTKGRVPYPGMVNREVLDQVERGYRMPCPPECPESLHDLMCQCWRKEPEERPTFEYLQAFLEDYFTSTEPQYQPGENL
Description: as §1, §2

[11] = biological target: T11, ZAP70 (Homo sapiens, UniProt P43403)
T11 construct: purchased Eurofins DiscoverX, LLC; host or cells: E. coli BL21-derived host (T7 phage) or HEK-293
T11 sequence (P43403 1-619): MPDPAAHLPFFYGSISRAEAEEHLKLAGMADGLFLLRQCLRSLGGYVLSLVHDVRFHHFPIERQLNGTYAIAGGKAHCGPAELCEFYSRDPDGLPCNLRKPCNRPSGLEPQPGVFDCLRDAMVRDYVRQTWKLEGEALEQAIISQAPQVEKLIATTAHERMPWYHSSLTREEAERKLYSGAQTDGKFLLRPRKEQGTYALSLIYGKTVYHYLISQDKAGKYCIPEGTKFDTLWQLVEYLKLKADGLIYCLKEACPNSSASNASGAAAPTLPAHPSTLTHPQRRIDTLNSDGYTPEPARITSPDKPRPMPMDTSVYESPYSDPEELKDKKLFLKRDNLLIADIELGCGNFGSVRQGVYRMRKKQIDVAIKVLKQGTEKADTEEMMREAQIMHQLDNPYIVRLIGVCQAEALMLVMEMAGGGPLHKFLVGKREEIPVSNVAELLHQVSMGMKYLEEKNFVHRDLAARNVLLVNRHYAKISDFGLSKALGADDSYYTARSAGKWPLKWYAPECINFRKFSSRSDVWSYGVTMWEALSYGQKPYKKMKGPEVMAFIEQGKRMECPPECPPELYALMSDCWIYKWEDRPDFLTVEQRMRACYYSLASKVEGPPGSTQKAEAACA
Description: as §1, §2

[12] = biological target: T12, CDK7 (Homo sapiens, UniProt P50613)
T12 construct: purchased Eurofins DiscoverX, LLC; host or cells: E. coli BL21-derived (T7 phage) or HEK-293
T12 sequence (P50613 whole entry): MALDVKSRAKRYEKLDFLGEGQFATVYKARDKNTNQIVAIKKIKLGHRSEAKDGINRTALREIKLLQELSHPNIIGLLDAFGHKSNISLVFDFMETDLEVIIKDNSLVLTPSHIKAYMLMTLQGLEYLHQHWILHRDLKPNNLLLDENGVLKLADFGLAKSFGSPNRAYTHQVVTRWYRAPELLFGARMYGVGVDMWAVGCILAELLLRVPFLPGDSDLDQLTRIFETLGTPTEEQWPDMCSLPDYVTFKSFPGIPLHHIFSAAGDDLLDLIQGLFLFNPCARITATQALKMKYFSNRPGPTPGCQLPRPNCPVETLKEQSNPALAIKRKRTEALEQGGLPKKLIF
Description: as §1, §2

Compound	RA @ 1000nM [1] [%]	RA @ 10000nM [1] [%]	RA @ 1000nM [2] [%]	RA @ 10000nM [2] [%]	RA @ 1000nM [3] [%]	RA @ 10000nM [3] [%]	RA @ 1000nM [4] [%]	RA @ 10000nM [4] [%]	RA @ 1000nM [5] [%]	RA @ 10000nM [5] [%]	RA @ 1000nM [6] [%]	RA @ 10000nM [6] [%]	RA @ 1000nM [7] [%]	RA @ 10000nM [7] [%]	RA @ 1000nM [8] [%]	RA @ 10000nM [8] [%]	RA @ 1000nM [9] [%]	RA @ 10000nM [9] [%]	RA @ 1000nM [10] [%]	RA @ 10000nM [10] [%]	further results
CN(C)CCNC(=O)c1cc2c(cnn2CC2CCCCC2)cc1Cc1ccc(F)cc1F [Compound 95, 1-(Cyclohexylmethyl)-5-(2,4-difluorobenzyl)-N-(2-(dimethylamino)ethyl)-1H-indazole-6-carboxamide]	100	100	79	86	100	90	100	100	100	93	100	100	47	94	93	81	92	99	100	93	RA @ 1000nM [11]: 100%; RA @ 10000nM [11]: 100%; RA @ 1000nM [12]: 88%; RA @ 10000nM [12]: 77%
CC(C)Cn1ncc2cc(Cc3ccc(F)cc3F)c(C(=O)NCCN(C)C)cc21 [Compound 94, 5-(2,4-Difluorobenzyl)-N-(2-(dimethylamino)ethyl)-1-isobutyl-1H-indazole-6-carboxamide]	100	100	100	100	100	100	97	100	100	100	100	1.3	100	100	85	83	77	100	100	94	RA @ 1000nM [11]: 100%; RA @ 10000nM [11]: 79%; RA @ 1000nM [12]: 79%; RA @ 10000nM [12]: 86%
